Structures can show the parent of a compound that is named as a salt. *1 amine or outer side, *2 acyl side, *3 side chain or, on linkers, in order; H or OH if unused. Where a SMILES comes first, the peptide text is derived from it. Bridges are numbered along the chain shown (N, C = ends). [ ]: non-standard residue; d: D form. The star is where a group is joined. X1 = NC1=N[C@@H]([C@H](N[*:1])C(=O)[*:2])C[C@H](O)N1; ΔAla(Z-3-ureido) = NC(=O)N/C=C(\N)C(=O)O; β3hOrn = NCCC[C@H](N)CC(=O)*; Dap = NC[C@H](N)C(=O)O
Experiment: in vitro
Conditions: PAMPA, PAMPA-BBB Pe

SMILES | Papp [×10⁻⁶ cm/s]
COc1cc2c(cc1OC)[C@@H]1Cc3ccc(OC)c(OC)c3CN1CC2 [TETRAHYDROPALMATINE] | 156
COC(=O)c1c(C)cc(O)c(C)c1O [VERAMOSS] | 225
CC[C@]1(O)C[C@H]2CN(CCc3c([nH]c4ccccc34)[C@@](C(=O)OC)(c3cc4c(cc3OC)N(C)[C@H]3[C@@](O)(C(=O)OC)[C@H](OC(C)=O)[C@]5(CC)C=CCN6CC[C@]43[C@@H]65)C2)C1 [V[…]] | 21
COC(=O)[C@@H]1[C@H]2C[C@H]3c4[nH]c5ccccc5c4CCN3C[C@@H]2CC[C@@H]1O [YOHIMBINE] | 42
O=C1C[C@@H]2OCC=C3CN4CC[C@]56c7ccccc7N1[C@H]5[C@H]2[C@H]3C[C@H]46 [[…]] | 13

Same assay, conditions: PAMPA, PAMPA-BBB Pe(10^-6 cm/sec)

SMILES | Papp [×10⁻⁶ cm/s]
Cn1cnc2c1c(=O)[nH]c(=O)n2C [THEOBROMINE] | < 1
Cc1ncc(C[n+]2csc(CCO)c2C)c(N)n1 [THIAMINE MONONITRATE] | < 1
C[n+]1cccc(C(=O)[O-])c1 [TRIGONELLINE] | < 1
O=c1ccc2ccc(O)cc2o1 [UMBELLIFERONE] | < 1
CN[C@H](CC(C)C)C(=O)N[C@H]1C(=O)N[C@@H](CC(N)=O)C(=O)N[C@H]2C(=O)N[C@H]3C(=O)N[C@H](C(=O)N[C@H](C(=O)O)c4cc(O)cc(O)c4-c4cc3ccc4O)[C@H](O)c3ccc(c(Cl)c3)Oc3cc2cc(c3O[C@@H]2O[C@H](CO)[C@@H](O)[C@H](O)[C@H]2O[C@H]2C[C@](C)(N)[C@H](O)[C@H](C)O2)Oc2ccc(cc2Cl)[C@H]1O [VANCOMYCIN HYDROCHLORIDE] | < 1
CC[C@]1(O)C[C@@H]2CN(CCc3c([nH]c4ccccc34)[C@@](C(=O)OC)(c3cc4c(cc3OC)N(C)[C@H]3[C@@](O)(C(=O)OC)[C@H](OC(C)=O)[C@]5(CC)C=CCN6CC[C@]43[C@@H]65)C2)C1 [VINBLASTINE] | 5.7
CN(C)[C@@H]1C(O)=C(C(N)=O)C(=O)[C@@]2(O)C(O)=C3C(=O)c4c(O)ccc(Cl)c4[C@@](C)(O)[C@H]3C[C@@H]12 [[…]] | < 1

Same assay, conditions: PAMPA, PAMPA-BBB Pe(10^-6 cm/sec), Table S3: compounds exhibiting low PAMPA-BBB permeability

SMILES | Papp [×10⁻⁶ cm/s]
C[S+](CC[C@H](N)C(=O)[O-])C[C@H]1O[C@@H](n2cnc3c(N)ncnc32)[C@H](O)[C@@H]1O (stereo partly shown) [S-ADENOSYLMETHIONINE] | < 1
OCC(O)Cc1ccc2c(c1)OCO2 (stereo not shown) [SAFROLGLYCOL] | 1.7
O=C(O)c1ccccc1O [SALICYLIC ACID] | 1.8
C[C@@H]1NCCc2cc(O)c(O)cc21 [SALSOLINOL] | < 1
C[n+]1cc2c3c(ccc2c2ccc4cc5c(cc4c21)OCO5)OCO3 [SANGUINARIUM CHLORIDE] | < 1
COc1cc(C[C@@H](CO)[C@H](CO)Cc2ccc(O)c(OC)c2)ccc1O [SECOISOLARICIRESINOL] | < 1
O=C(O)c1cc(O)c2c(c1)[C@@H]([C@H]1c3cc(C(=O)O)cc(O)c3C(=O)c3c(O[C@@H]4O[C@H](CO)[C@@H](O)[C@H](O)[C@H]4O)cccc31)c1cccc(O[C@@H]3O[C@H](CO)[C@@H](O)[C@H](O)[C@H]3O)c1C2=O [SENNOSIDE B] | 3
C[C@H](O)C(=O)C1=Nc2c(nc(N)[nH]c2=O)NC1 [SEPIAPTERIN] | 1.6
NCCc1c[nH]c2ccc(O)cc12 [SEROTONIN HYDROCHLORIDE] | < 1
COC1=C[C@@H]2[C@@H]3Cc4ccc(OC)c(O)c4[C@]2(CCN3C)CC1=O [SINOMENINE] | 2.2
CC(C)C1=CC2=CC[C@@H]3[C@](C)(CCC[C@@]3(C)C(=O)O)[C@H]2CC1 [SODIUM ABIETATE] | < 1
CC1=C(O)C(=O)OC1C (stereo not shown) [SOTOLONE] | < 1
O=c1c(O)c(-c2ccc(O[C@@H]3O[C@H](CO)[C@@H](O)[C@H](O)[C@H]3O)c(O)c2)oc2cc(O)cc(O)c12 [SPIRAEOSIDE] | < 1
CO[C@@H]1[C@@H](O[C@@H]2O[C@H](C)[C@@H](O[C@H]3C[C@@](C)(O)[C@@H](O)[C@H](C)O3)[C@H](N(C)C)[C@H]2O)[C@@H](CC=O)C[C@@H](C)[C@@H](O[C@H]2CC[C@H](N(C)C)[C@@H](C)O2)/C=C/C=C/C[C@@H](C)OC(=O)C[C@H]1OC(C)=O [SPIRAMYCIN II] | 7.6
COc1cc(C)c2c(c1C=O)Oc1c(c(C)c(O)c3c1C(O)OC3=O)OC2=O (stereo not shown) [STICTIC ACID] | < 1
Cc1coc2c1C(=O)C(=O)c1c-2ccc2c(C)cccc12 [TANSHINONE I] | 6.8
CC1=C(O)C(=O)[C@@H]2O[C@@H]2C1=O [TERREIC ACID] | 6.8
O=C(O[C@@H]1Cc2c(O)cc(O)cc2O[C@@H]1c1cc(O)c(=O)c2c(O)c(O)cc([C@H]3Oc4cc(O)cc(O)c4C[C@H]3O)c2c1)c1cc(O)c(O)c(O)c1 [THEAFLAVIN MONOGALLATE] | < 1
O=c1c(O)cc([C@H]2Oc3cc(O)cc(O)c3C[C@H]2O)cc2c([C@H]3Oc4cc(O)cc(O)c4C[C@@H]3O)cc(O)c(O)c12 [THEAFLAVINE] | < 1
CC(=O)Nc1c2sscc-2n(C)c1=O [THIOLUTIN] | < 1
C=C(NC(=O)C(=C)NC(=O)c1csc(C2=N[C@@H]3c4csc(n4)[C@H]4NC(=O)c5csc(n5)[C@H]([C@](C)(O)[C@@H](C)O)NC(=O)[C@H]5CSC(=N5)/C(=C/C)NC(=O)[C@H]([C@@H](C)O)NC(=O)c5csc(n5)[C@]3(CC2)NC(=O)[C@H](C)NC(=O)C(=C)NC(=O)[C@H](C)NC(=O)[C@H]([C@@H](C)CC)N[C@@H]2C=Cc3c([C@H](C)O)cc(nc3[C@H]2O)C(=O)O[C@@H]4C)n1)C(N)=O [THIOSTREPTON] | < 1

SMILES | Papp [×10⁻⁶ cm/s]
O=C(/C=C/c1ccc(O)cc1)OC[C@H]1O[C@@H](Oc2c(-c3ccc(O)cc3)oc3cc(O)cc(O)c3c2=O)[C@H](O)[C@@H](O)[C@@H]1O [TILIROSIDE] | < 1
CCC/C=C/C/C=C/C=C/C=N/NN=O [TRIACSIN C] | 8.1
NCCc1c[nH]c2ccccc12 [TRYPTAMINE HYDROCHLORIDE] | < 1
NCCCS(=O)(=O)O [TR[…]] | 1.7
Nc1ncnc2c1ccn2[C@@H]1O[C@H](CO)[C@@H](O)[C@H]1O [TUBERCIDIN] | 2.1
O=c1ccn([C@@H]2O[C@H](COP(=O)(O)O)[C@@H](O)[C@H]2O)c(=O)[nH]1 [URIDINE PHOSPHATE] | < 1
O=C(O)/C=C/c1c[nH]cn1 [UROCANIC ACID] | < 1
O=c1ccn([C@@H]2O[C@H](COP(=O)(O)OP(=O)(O)O)[C@@H](O)[C@H]2O)c(=O)[nH]1 [Uridine diphosphate disodium] | < 1
COc1cc(C(=O)O)ccc1O [VANILLIC ACID] | < 1
COC(=O)C1=CO[C@@H](O[C@@H]2O[C@H](CO)[C@@H](O)[C@H](O)[C@H]2O)[C@H]2[C@@H]1C(=O)C[C@@H]2C [VERBENALIN] | < 1
NCCC[C@H](N)CC(=O)N[C@H]1CNC(=O)[C@H]([C@H]2C[C@H](O)NC(N)=N2)NC(=O)/C(=C/NC(N)=O)NC(=O)[C@H](CO)NC(=O)[C@H](CO)NC1=O [VIOMYCIN SULFATE] (β3hOrn-[Dap]SS[ΔAla(Z-3-ureido)][X1]; lactam 1-C) | < 1
O=c1cc(-c2ccc(O)cc2)oc2c([C@@H]3O[C@H](CO)[C@@H](O)[C@H](O)[C@H]3O)c(O)cc(O)c12 [VITEXIN] | < 1
N[C@@H](Cn1ccc(=O)[nH]c1=O)C(=O)O [WILLARDIINE] | < 1
CC1=C[C@H](O)CC(C)(C)[C@H]1/C=C/C(C)=C/C=C/C(C)=C/C=C/C=C(C)/C=C/C=C(C)/C=C/C1=C(C)C[C@@H](O)CC1(C)C [XANTHOPHYLL] | 5
O=c1[nH]c(=O)c2ncn([C@@H]3O[C@H](CO)[C@@H](O)[C@H]3O)c2[nH]1 [XANTHOSINE] | < 1
CC1=C(/C=C/C(C)=C/C=C/C(C)=C/C=C/C=C(C)/C=C/C=C(C)/C=C/C2=C(C)C[C@@H](O)CC2(C)C)C(C)(C)C[C@H](O)C1 [ZEAXANTHIN] | 2.1
COc1cc(C(O)C(=O)O)ccc1O (stereo not shown) [[…] ACID] | 5.6
O=C1O/C(=C\c2ccc(O)cc2)C(O)=C1c1ccc(O)cc1 [[…] B1] | < 1
O=C(Nc1ccccc1C(=O)O)c1ccccc1 [[…] B] | 1.9
CCCCCCCCCCCCCCCCCCCC(=O)O [[…]] | < 1
Cc1ncc(CO)c(CO)c1O [[…]] | < 1

Same assay, conditions: PAMPA, PAMPA-BBB Pe, Table S2: compounds exhibiting moderate to high PAMPA-BBB permeability

SMILES | Papp [×10⁻⁶ cm/s]
COC1=C[C@]23CCN(C)[C@H](Cc4ccc(OC)c(O)c42)C3=CC1=O [SALUTARIDINE] | 11
CC1=C2[C@H]3OC(=O)[C@@H](C)[C@@H]3CC[C@@]2(C)C=CC1=O [SANTONINUM] | 49
COc1ccc(-c2cc(=O)c3c(O)cc(O)c(-c4cc(-c5cc(=O)c6c(O)cc(OC)cc6o5)ccc4OC)c3o2)cc1 [SCIADOPITYSIN] | 20
COc1ccc(-c2cc(=O)c3c(OC)c(OC)c(OC)cc3o2)cc1OC [SINENSETIN] | 36
COc1cc2c(c(OC)c1OC)-c1c(cc(OC)c(OC)c1OC)C[C@H](C)[C@H](C)C2 [S[…]] | 171
COC(=O)C1=CO[C@@H](C)[C@@H]2CN3CCc4c([nH]c5ccccc45)[C@@H]3C[C@H]12 [TETRAHYDROALSTONINE] | > 530
Cc1ccc(C(C)C)c(O)c1 [THYMOL] | 168
O=C(/C=C/c1ccc(O)cc1)c1ccc(O)cc1O [TRIHYDROXYCHALCONE] | 169
CC1=CCCC(C)(C)C12CCC(C)O2 (stereo not shown) [T[…]] | 141
COc1ccc(C(=O)O[C@H]2CC[C@@]3(C)[C@@H]4CC[C@H]5[C@]6(O)C[C@H](O)[C@@]7(O)[C@@H](CN8C[C@@H](C)CC[C@H]8[C@@]7(C)O)[C@]6(O)C[C@@]53O[C@]24O)cc1OC [VERATRIDINE] | 17
CCC12C=CCN3CC[C@@]4(c5ccc(OC)cc5N(C)[C@H]4[C@@](O)(C(=O)OC)[C@@H]1OC(C)=O)[C@@H]32 (stereo partly shown) [VINDOLINE] | 92
O=c1c2ccccc2oc2ccccc12 [XANTHONE] | 173
COc1cc(O)c(C(C)=O)c(OC)c1 [XANTHOXYLINE] | 149
CC1=C[C@H](O)CC(C)(C)[C@H]1/C=C/C(C)=C/C=C/C(C)=C/C=C/C=C(C)/C=C/C=C(C)/C=C/C1=C(C)C[C@@H](O)CC1(C)C [XANTOFYL] | 28
COc1ccc(/C=C/c2cc(OC)cc(=O)o2)cc1 [YANGONIN] | 156
COc1cc(CCC(C)=O)ccc1O [ZINGERONE] | 23
